Patent publication US11331319B2, “Combination treatment for neuropsychiatric disorders” (UNIVERSITY OF MASSACHUSETTS, priority 2017, dated 2022)

Assays:
[1] = test system: N-methyl-D-aspartate receptor (NMDAR); settings: cited from earlier work; for Finding: schizophrenia treatment; for Limitation: efficacy / Limitation: toxicity / therapeutic window: Table 3
[2] = test system: young adults with uncomplicated type 1 diabetes; settings: 7000 mg per day, one week; cited from earlier work
[3] = over-the-counter nutrition supplement; cited from earlier work
[4] = test system: patients with schizophrenia; test: 16-week adjunctive minocycline clinical trial: SANS and PANSS; assay type: in vivo, human; settings: minocycline 200 mg per day added to risperidone, N = 27, week 16 value minus baseline value, mean
Description: Adult patients with schizophrenia were recruited from the 1st Affiliated Hospital of Kunming Medical University, and the Mental Health Center of Yunnan Province, China, between June 2010 and November 2011. The diagnosis of schizophrenia was made by trained clinical interviewers using the structured clinical interview for DSM-IV diagnosis (SCID). First et al., In: Structured Clinical interview for DSM-IV Axis I Disorders-Clinician Version (SCID-CV). Washington, D.C.: American Psychiatry Press. (1996). Other inclusion criteria included: (1) age 18 to 40 years old; (2) disease duration ≤5 years; (3) on stable dose of risperidone for at least 4 weeks prior to screening; (4) a stable living arrangement. Exclusion criteria were: (1) being allergic to minocycline or tetracycline; (2) a psychiatric diagnosis other than schizophrenia (determined by SCID); (3) serious, unstable medical conditions; (4) diagnosis of diabetes mellitus; (4) female patients who were planning to become pregnant, or were pregnant or lactating were also excluded from the study. The study was approved by the ethics committee of the 1st Affiliated Hospital of Kunming Medical University.
(§1) After screening, each eligible subject underwent baseline assessments including the Scale for the Assessment of Negative Symptoms (SANS), the Positive and Negative Syndrome Scale (PANSS), and blood draw for lab tests. Andreasen N C., “Negative symptoms in schizophrenia: Definition and reliability” Arch. Gen. Psychiatry 39:784-788 (1982); and Kay et al., “The positive and negative syndrome scale (PANSS) for schizophrenia” Schizophr. Bull. 13:261-276 (1987). Subjects continued to take risperidone at the same dose throughout the study, and were randomized in a 1:1 ratio to receive either minocycline (200 mg per day) or placebo for 16 weeks. At week 16, baseline assessments were repeated.
Statistical analysis was performed using SPSS (version 24.0, IBM Corp, Armonk, N.Y.). Descriptive statistics were performed to summarize demographic and clinical characteristics of the study sample. Group comparisons were performed using the independent t test for continuous variables, and the Fisher exact test or Chi-square test for categorical variables. Analysis of covariance (ANCOVA) was used to compare change scores from baseline to week 16 between the two treatment groups controlling for baseline scores and potential confounding variables. For all analyses, a p value less than 0.05 (2-tailed) was used for statistical significance.

[5] = test system: NO metabolites (nitrites and nitrates); test: Plasma levels of NO metabolites, Griess method (minocycline trial); assay type: in vivo, human; settings: minocycline 200 mg per day, N = 27, fasting plasma, week 16 value minus baseline value, mean
Description: as §1
(§2) Anthropometric measures included weight, height and body mass index (BMI). Blood samples were obtained 11 h (±1 h) after the completion of the last meal the night before. Subjects were allowed to drink water during the fasting period. Laboratory assays for plasma levels of TNFα, and IL-1β were performed using the enzyme-linked immunosorbent assay (ELISA) (Bender Med Systems GmbH Campus Vienna Biocenter 2 A-1030 Vienna, Austria, Europe). Plasma levels of NO metabolites (nitrites and nitrates) were measured using the Griess method (Cortas & Wakid 1990) (Nanjing Jiancheng Bioengineering Institute, China).
(§3) Statistical analysis was performed using SPSS (version 24.0, IBM Corp, Armonk, N.Y.). […]

[6] = test system: IL-1β; test: Plasma IL-1β by ELISA (minocycline trial); assay type: in vivo, human; settings: minocycline 200 mg per day, N = 27; fasting plasma; week 16 value minus baseline value; mean; listed as Minocycline
Description: as §1, §2, §3

[7] = test system: TNFα; test: Plasma TNFα by ELISA (minocycline trial); assay type: in vivo, human; settings: minocycline 200 mg per day, N = 27; fasting plasma; week 16 value minus baseline value; mean; listed as Minocycline
Description: as §1, §2, §3

[8] = Body mass index (minocycline trial); assay type: in vivo, human; settings: minocycline 200 mg per day, N = 27; week 16 value minus baseline value; mean
Description: as §1, §2, §3

[9] = cited from earlier work
[10] = underlying neurologic disorders, co-administration of levodopa and sapropterin; cited from earlier work

With `C[C@@H](N)C(=O)O` [D-Alanine] as the compound, how does the Finding [1] read?
The Finding was “Improvement in overall”.

With `N[C@@H]1CONC1=O` [D-Cycloserine] as the compound, how does the “Limitation: efficacy” value [1] read?
The value was “Decrease in efficacy over time”.

What about the “Limitation: toxicity / therapeutic window” value [1] of the same compound?
Its value is “Very narrow therapeutic window”.

What about the Finding [1] of the same compound?
The Finding was “Inconsistent finding; improvement”.

What does the source list for `N[C@H](CO)C(=O)O` [D-Serine]?
Limitation: toxicity / therapeutic window [1]: Nephrotoxicity; Finding [1]: Improvement in overall

Which “Limitation: efficacy” value [1] does the source give for `NCC(=O)O` [Glycine] here?
The value was “High doses required to reach therapeutic effects”.

And the Finding [1]?
Its Finding is “Improvement in overall”.

Which “Effect of supplementation” value [2] does the source give for `N=C(N)NCCC[C@H](N)C(=O)O` [L-arginine] here?
Its value is “improved oxidative stress status, increased blood flow and exercise responses”.

And the Safety and tolerability [3]?
Its Safety and tolerability is “considered safe and well tolerated in general”.

With `CCCCCNCC(N)=O` [Milacemide] as the compound, how does the Finding [1] read?
Its Finding is “No significant clinical benefit”.

For `CNCC(=O)O` [Sarcosine], which Finding [1] is on record?
The Finding was “Improvment in overall”.

Which results are given for `CN(C)c1ccc(O)c2c1C[C@H]1C[C@H]3[C@H](N(C)C)C(O)=C(C(N)=O)C(=O)[C@@]3(O)C(O)=C1C2=O` [minocycline]?
PANSS general psychopathology score, week 16 change [4]: −14.5; PANSS negative symptom score, week 16 change [4]: −10.8±5.9; PANSS positive symptom score, week 16 change [4]: −8.5; PANSS total score, week 16 change [4]: −32.9±17.1; SANS total score, week 16 change [4]: −31.2±25.5; PANSS negative symptom score, week 16 change ([4]; listed as Minocycline): −10.8; PANSS total score, week 16 change ([4]; listed as Minocycline): −32.9; SANS total score, week 16 change ([4]; listed as Minocycline): −31.2; Nitric oxide (plasma levels of NO metabolites), week 16 change [5]: -8.19 ± 18.09 µmol/L; Nitric oxide (plasma levels of NO metabolites), week 16 change ([5]; listed as Minocycline): -8.19 µmol/L; IL-1β plasma level, week 16 change [6]: -0.99 pg/mL; TNF-α plasma level, week 16 change [7]: -0.97 pg/mL; BMI, week 16 change [8]: 1.98 kg/m^2; Tolerability ([9]; in humans): well tolerated in humans; Oral bioavailability ([9]; in vivo, po): high oral bioavailability

For `C[C@H](O)[C@H](O)[C@H]1CNc2nc(N)[nH]c(=O)c2N1` [sapropterin], which “Patients who experienced confusions, exacerbation of convulsions, over-stimulation, or irritability” value [10] is on record?
The value was 3 patients.
